Experimental findings from PMC11672294, “The Antipsychotic Drug Aripiprazole Suppresses Colorectal Cancer by Targeting LAMP2a to Induce RNH1/miR‐99a/mTOR‐Mediated Autophagy and Apoptosis” (Advanced Science, 2024) are described below.

Counter-ions that a name gives are not always drawn.

The first series relates to HT29. Particulars: 72 h, relative to DMSO, 10 µM, Relative cell viability (%). An outline of the steps:
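HT29 viability used WST-1 reduction (2 h, 37 °C, A450) after 72 h of treatment; screening compounds were tested singly at 10 µM, with dimethyl sulfoxide as the comparison.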
Consider `COc1ccc(C[C@@H]2c3cc(OC)c(OC)cc3CC[N@+]2(C)CCC(=O)OCCCCCOC(=O)CC[N@@+]2(C)CCc3cc(OC)c(OC)cc3[C@H]2Cc2ccc(OC)c(OC)c2)cc1OC` [Atracurium Besylate], for which the “Relative cell viability (%)” value was determined as 91.95%.

Turning to `C[C@@H]1CCN(C(=O)CC#N)C[C@@H]1N(C)c1ncnc2[nH]ccc12` [Tofacitinib (CP-690550) Citrate], the “Relative cell viability (%)” value amounted to 115%.

With `COc1cc(Nc2ncc(F)c(Nc3ccc4c(n3)N(COP(=O)(O)O)C(=O)C(C)(C)O4)n2)cc(OC)c1OC` [R788 (Fostamatinib) Disodium], the “Relative cell viability (%)” value is recorded as 100.8%.

Still in this series, the particulars now being: 72 h, relative to DMSO; 10 µM.
With `O=C(O)c1nn(Cc2ccc(Cl)cc2Cl)c2ccccc12` [Lonidamine], the “Relative cell viability (%)” value is given as 47.57%.

With `O=C(CCCN1CCN(c2ccccn2)CC1)c1ccc(F)cc1` [Azaperone], the “Relative cell viability (%)” value was 93.03%.

In the case of `C[C@]12CC[C@H](O)CC1=CC[C@@H]1[C@@H]2CC[C@]2(C)C(n3cnc4ccccc43)=CC[C@@H]12` [Galeterone], the “Relative cell viability (%)” value amounted to 25.73%.

For `O=C(O)C[C@H](O)C[C@H](O)/C=C/c1c(C2CC2)nc2ccccc2c1-c1ccc(F)cc1` [Pitavastatin Calcium], the “Relative cell viability (%)” value stood at 44.92%.

Turning to `CC(C)(C)c1ccc(C(=O)CCCN2CCC(OC(c3ccccc3)c3ccccc3)CC2)cc1` [Ebastine], the “Relative cell viability (%)” value was found to be 13.94%.

`Nc1ccc(/N=N/c2ccccc2)c(N)n1` [Phenazopyridine HCl]: the “Relative cell viability (%)” value stood at 73.94%.

Turning to `CC(C)(C)c1nc(-c2cccc(NS(=O)(=O)c3c(F)cccc3F)c2F)c(-c2ccnc(N)n2)s1` [Dabrafenib (GSK2118436)], the “Relative cell viability (%)” value came to 37.38%.

In the case of `C[C@H]1O[C@@H](O[C@H]2[C@@H](O)C[C@H](O[C@H]3[C@@H](O)C[C@H](O[C@H]4CC[C@@]5(C)[C@H](CC[C@@H]6[C@@H]5C[C@@H](O)[C@]5(C)[C@@H](C7=CC(=O)OC7)CC[C@]65O)C4)O[C@@H]3C)O[C@@H]2C)C[C@H](O)[C@@H]1O` [Digoxin], the “Relative cell viability (%)” value is on record as 5.758%.

Regarding `CCN(CCCc1ccccc1)CCCc1ccccc1` [Alverine Citrate], the “Relative cell viability (%)” value was determined as 78.16%.

For `Cc1nnc(C(C)C)n1[C@@H]1C[C@H]2CC[C@@H](C1)N2CC[C@H](NC(=O)C1CCC(F)(F)CC1)c1ccccc1` [Maraviroc], the “Relative cell viability (%)” value worked out at 135.7%.

In the case of `NC(=O)c1ncn([C@@H]2O[C@H](CO)[C@@H](O)[C@H]2O)c1N` [Acadesine], the “Relative cell viability (%)” value is given as 105.9%.

`NC(=O)c1cc(N2CC2)c([N+](=O)[O-])cc1[N+](=O)[O-]` [CB1954]: the “Relative cell viability (%)” value turned out to be 115%.

On to `CO[C@H]1/C=C/O[C@@]2(C)Oc3c(C)c(O)c4c(O)c(c5c(nc6cc(C)ccn65)c4c3C2=O)NC(=O)/C(C)=C\C=C\[C@H](C)[C@H](O)[C@@H](C)[C@@H](O)[C@@H](C)[C@H](OC(C)=O)[C@@H]1C` [Rifaximin], for which the “Relative cell viability (%)” value was 94.49%.

Turning to `O=C(O)Cc1cc(I)c(Oc2ccc(O)c(I)c2)c(I)c1` [Tiratricol], the “Relative cell viability (%)” value amounted to 83.03%.

Consider `NC(=O)[C@@H](CCC(F)(F)F)N(Cc1ccc(-c2ncon2)cc1F)S(=O)(=O)c1ccc(Cl)cc1` [Avagacestat (BMS-708163)], for which the “Relative cell viability (%)” value was 74.3%.

As for `CN(N=O)C(=O)N[C@@H](C=O)[C@@H](O)[C@H](O)[C@H](O)CO` [Streptozotocin (STZ)], the “Relative cell viability (%)” value stood at 74.3%.

As for `CCOC(=O)C1=C(C)NC(C)=C(C(=O)OC)C1c1cccc(Cl)c1Cl` (stereo not shown) [Felodipine], the “Relative cell viability (%)” value was found to be 60.17%.

`COc1cc(/C=C/C(=O)CC(=O)/C=C/c2ccc(O)c(OC)c2)ccc1O` [Curcumin]: the “Relative cell viability (%)” value is given as 46.19%.

`O=C(/C=C\n1cnc(-c2cc(C(F)(F)F)cc(C(F)(F)F)c2)n1)NNc1cnccn1` [KPT-330]: the “Relative cell viability (%)” value was found to be 44.44%.

Regarding `CC(C(=O)O)c1ccc(C(=O)c2cccs2)cc1` (stereo not shown) [Suprofen], the “Relative cell viability (%)” value was 93.22%.

As to `O=S(=O)(O)CCS` [Mesna], the “Relative cell viability (%)” value is recorded as 56.36%.

With `OC(CCCN1CCCCC1)(c1ccccc1)c1ccccc1` [Diphenidol HCl], the “Relative cell viability (%)” value worked out at 59.39%.

`CCOC(=O)c1c(C)n(C)c2ccc(O)cc12` [Mecarbinate]: the “Relative cell viability (%)” value came to 130.3%.

In the case of `CCn1c(=O)c(-c2cc[nH]n2)cc2c(C)nc(N)nc21` [Voxtalisib (XL765, SAR245409)], the “Relative cell viability (%)” value was 31.62%.

Regarding `[H]/N=C(/N)NS(=O)(=O)c1ccc(N)cc1` [Sulfaguanidine], the “Relative cell viability (%)” value was 70.303%.

`Cc1c(N)nc([C@H](CC(N)=O)NC[C@H](N)C(N)=O)nc1C(=O)N[C@H](C(=O)N[C@H](C)[C@@H](O)[C@H](C)C(=O)N[C@H](C(=O)NCCc1nc(-c2nc(C(=O)NCCC[S+](C)C)cs2)cs1)[C@@H](C)O)[C@@H](O[C@@H]1O[C@@H](CO)[C@@H](O)[C@H](O)[C@@H]1O[C@H]1O[C@H](CO)[C@@H](O)[C@H](OC(N)=O)[C@@H]1O)c1c[nH]cn1` [Bleomycin Sulfate]: the “Relative cell viability (%)” value came to 74.3%.

Take `CCOC(=O)[C@H](CCc1ccccc1)N[C@H]1CS[C@H](c2cccs2)CN(CC(=O)O)C1=O` [Temocapril HCl]: the “Relative cell viability (%)” value is 117.3%.

In the case of `CC(=O)OCC(=O)[C@@]12N=C(C)O[C@@H]1C[C@H]1[C@@H]3CCC4=CC(=O)C=C[C@]4(C)[C@H]3[C@@H](O)C[C@@]12C` [Deflazacort], the “Relative cell viability (%)” value turned out to be 91.95%.

`Clc1ccc(C(c2ccccc2Cl)C(Cl)Cl)cc1` (stereo not shown) [Mitotane]: the “Relative cell viability (%)” value worked out at 63.98%.

Turning to `O=C(NC[C@H]1CN(c2ccc(N3CCOCC3=O)cc2)C(=O)O1)c1ccc(Cl)s1` [Rivaroxaban], the “Relative cell viability (%)” value came to 107.3%.

For the molecule `NCCc1c[nH]c2ccc(O)cc12` [Serotonin HCl], the “Relative cell viability (%)” value is on record as 86.67%.

As for `Cc1cccc(C(C)c2cnc[nH]2)c1C` (stereo not shown) [Medetomidine HCl], the “Relative cell viability (%)” value is 57.77%.

As to `CN1C(C(=O)Nc2ccccn2)=C(O)c2sc(Cl)cc2S1(=O)=O` [Lornoxicam], the “Relative cell viability (%)” value came out at 228.6%.

Take `O[C@@H]1CO[C@H]2[C@@H]1OC[C@@H]2O` [Isosorbide]: the “Relative cell viability (%)” value amounted to 83.94%.

Regarding `O=C(c1ccc(OCCN2CCCCC2)cc1)c1c(-c2ccc(O)cc2)sc2cc(O)ccc12` [Raloxifene HCl], the “Relative cell viability (%)” value is recorded as 36.92%.

`CC[C@]1(O)C[C@H]2CN(CCc3c([nH]c4ccccc34)[C@@](C(=O)OC)(c3cc4c(cc3OC)N(C=O)[C@H]3[C@@](O)(C(=O)OC)[C@H](OC(C)=O)[C@]5(CC)C=CCN6CC[C@]43[C@@H]65)C2)C1` [Vincristine]: the “Relative cell viability (%)” value turned out to be 22.9%.

Take `CN(C)c1nc(N(C)C)nc(N(C)C)n1` [Altretamine]: the “Relative cell viability (%)” value came out at 57.17%.

Take `N=C(N)NC(=O)c1nc(Cl)c(N)nc1N` [Amiloride HCl]: the “Relative cell viability (%)” value came out at 66.53%.

Consider `COc1ccc(NS(=O)(=O)c2ccc(N)cc2)nn1` [Sulfamethoxypyridazine], for which the “Relative cell viability (%)” value was 72.12%.

Regarding `CC/C(=C(/CC)c1ccc(O)cc1)c1ccc(O)cc1` [Diethylstilbestrol], the “Relative cell viability (%)” value came to 69.07%.

Consider `CC[C@@]1(O)C(=O)OCc2c1cc1n(c2=O)Cc2cc3c(CN(C)C)c(O)ccc3nc2-1` [Topotecan HCl], for which the “Relative cell viability (%)” value is reported as 16.67%.

Regarding `CCOC(=O)[C@H](CCc1ccccc1)N[C@H]1CCc2ccccc2N(CC(=O)O)C1=O` [Benazepril HCl], the “Relative cell viability (%)” value came to 72.74%.

On to `Cc1cnc(C(=O)O)c[n+]1[O-]` [Acipimox], for which the “Relative cell viability (%)” value was found to be 94.49%.

Consider `CCOC(=O)c1ccc(N)cc1` [Benzocaine], for which the “Relative cell viability (%)” value came out at 80.303%.

On to `CCC1(c2ccccc2)C(=O)NCNC1=O` [Primidone], for which the “Relative cell viability (%)” value amounted to 178.2%.

Take `C[C@H]1O[C@H](O[C@H]2[C@H](O)[C@@H](O)[C@@H](O[C@H]3[C@H](O)[C@@H](O)C(O)O[C@@H]3CO)O[C@@H]2CO)[C@H](O)[C@@H](O)[C@@H]1N[C@H]1C=C(CO)[C@@H](O)[C@H](O)[C@H]1O` (stereo partly shown) [Acarbose]: the “Relative cell viability (%)” value came out at 103.9%.

On to `Cn1cnc2c(F)c(Nc3ccc(Br)cc3F)c(C(=O)NOCCO)cc21` [MEK162 (ARRY-162, ARRY-438162)], for which the “Relative cell viability (%)” value worked out at 36.75%.

For `CCC(COC(=O)c1cc(OC)c(OC)c(OC)c1)(c1ccccc1)N(C)C` (stereo not shown) [Trimebutine], the “Relative cell viability (%)” value was found to be 107.3%.

For `CN(C)CCC=C1c2ccccc2C=Cc2ccccc21` [Cyclobenzaprine HCl], the “Relative cell viability (%)” value is listed as 39.39%.

Turning to `CCN1CCN(c2cc3c(cc2F)c(=O)c(C(=O)O)cn3C2CC2)CC1` [Enrofloxacin], the “Relative cell viability (%)” value is given as 78.16%.

With `COc1cc(C)c(/C=C/C(C)=C/C=C/C(C)=C/C(=O)O)c(C)c1C` [Acitretin], the “Relative cell viability (%)” value amounted to 60.28%.

Turning to `O=P1(N(CCCl)CCCl)NCCCO1` (stereo not shown) [Cyclophosphamide Monohydrate], the “Relative cell viability (%)” value was 130.7%.

On to `O=c1cc[nH]c(=O)[nH]1` [Uracil], for which the “Relative cell viability (%)” value was found to be 73.94%.

Regarding `CCCc1nc2c(C)cc(-c3nc4ccccc4n3C)cc2n1Cc1ccc(-c2ccccc2C(=O)O)cc1` [Telmisartan], the “Relative cell viability (%)” value was determined as 47.46%.

As to `CC(=O)N1CCN(c2ccc(OC[C@@H]3CO[C@@](Cn4ccnc4)(c4ccc(Cl)cc4Cl)O3)cc2)CC1` (racemic) [Ketoconazole], the “Relative cell viability (%)” value worked out at 43.15%.

Take `O=C(O)c1ccc2c(c1)nc(Nc1cccc(Cl)c1)c1ccncc12` [CX-4945 (Silmitasertib)]: the “Relative cell viability (%)” value is 120.8%.

For `CC#CCn1c(N2CCC[C@@H](N)C2)nc2c1c(=O)n(Cc1nc(C)c3ccccc3n1)c(=O)n2C` [Linagliptin], the “Relative cell viability (%)” value was 66.5%.

In the case of `COC(=O)C1=C(C)NC(C)=C(C(=O)O[C@@H]2CCCN(Cc3ccccc3)C2)[C@@H]1c1cccc([N+](=O)[O-])c1` (racemic) [Benidipine HCl], the “Relative cell viability (%)” value was found to be 75.78%.
